Assays:
Plasminogen = Plasminogen (Homo sapiens, UniProt P00747); assay: Tested for the Inhibition of the catalytic activity of human plasmin at 25 degree C and pH 7.5.
Serine protease 1 = biological target: T1, Serine protease 1 (Bos taurus, UniProt P00760); assay: Tested for the Inhibition of the catalytic activity of bovine trypsin at 25 degree C and pH 7.5.
T1 sequence (P00760 whole entry): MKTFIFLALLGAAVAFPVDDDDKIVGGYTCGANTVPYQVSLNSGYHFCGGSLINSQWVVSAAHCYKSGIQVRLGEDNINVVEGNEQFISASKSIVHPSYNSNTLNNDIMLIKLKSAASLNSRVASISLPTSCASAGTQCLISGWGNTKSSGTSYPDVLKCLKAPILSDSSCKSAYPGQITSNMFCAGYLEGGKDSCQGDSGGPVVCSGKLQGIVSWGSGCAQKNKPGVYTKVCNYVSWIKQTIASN

Prothrombin = Prothrombin (Homo sapiens, UniProt P00734)
Description: Tested for the Inhibition of the catalytic activity of human Thrombin at 25 degree C and pH 7.5.

Plasminogen, sequence (P00747 97-580 limits assumed): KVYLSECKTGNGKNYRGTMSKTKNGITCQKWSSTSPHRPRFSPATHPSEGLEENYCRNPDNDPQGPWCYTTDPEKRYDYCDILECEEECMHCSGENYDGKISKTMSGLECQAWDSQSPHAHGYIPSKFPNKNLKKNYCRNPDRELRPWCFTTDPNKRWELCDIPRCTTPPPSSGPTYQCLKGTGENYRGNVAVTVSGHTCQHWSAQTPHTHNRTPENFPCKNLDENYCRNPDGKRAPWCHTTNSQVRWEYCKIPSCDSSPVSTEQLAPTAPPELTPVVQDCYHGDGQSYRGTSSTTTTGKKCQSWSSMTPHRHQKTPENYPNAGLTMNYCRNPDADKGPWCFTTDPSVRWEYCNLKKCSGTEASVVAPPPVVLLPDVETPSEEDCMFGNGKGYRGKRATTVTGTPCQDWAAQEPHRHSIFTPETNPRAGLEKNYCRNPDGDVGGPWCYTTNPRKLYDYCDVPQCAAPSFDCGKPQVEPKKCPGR
Plasminogen, sequence (P00747 581-810 limits assumed): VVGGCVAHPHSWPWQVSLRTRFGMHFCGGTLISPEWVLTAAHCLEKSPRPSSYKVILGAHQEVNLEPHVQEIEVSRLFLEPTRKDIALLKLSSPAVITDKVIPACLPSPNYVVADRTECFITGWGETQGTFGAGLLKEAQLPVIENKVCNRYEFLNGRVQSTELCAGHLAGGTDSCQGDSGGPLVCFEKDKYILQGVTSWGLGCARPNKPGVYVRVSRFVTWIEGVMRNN

Ki (Plasminogen) [µM] | Ki (Serine protease 1) [µM] | Ki (Prothrombin) [µM] | SMILES
> 500 | > 500 | 30 | Cc1cccc(OCCNc2ccncc2)c1
> 500 | > 500 | 7 | O=S(=O)(Nc1cccc(OCCNc2ccncc2)c1)c1ccc2ccccc2c1
> 500 | > 500 | 0.7 | O=S(=O)(Nc1cccc(OCCNc2ccncc2)c1)c1ccc(Cl)cc1
> 500 | > 500 | 300 | O=C(CNS(=O)(=O)c1ccc2ccccc2c1)N[C@@H](CCNc1ccncc1)C(=O)N1CCCCC1
> 500 | > 500 | 2 | O=C(CNS(=O)(=O)c1ccc(Cl)cc1)N[C@H](CCNc1ccncc1)C(=O)N1CCCCC1
> 500 | > 500 | 0.3 | O=S(=O)(Nc1cccc(OCCNc2ccncc2)c1)c1ccccc1
> 500 | > 500 | > 500 | OCCNc1ccncc1
34 | 1.7 | 1.5 | N=C(N)c1ccc(COc2cccc(CCNS(=O)(=O)c3ccc(Cl)cc3)c2)cc1
> 500 | > 500 | 0.2 | O=C(CNS(=O)(=O)c1ccc2ccccc2c1)N[C@H](CCNc1ccncc1)C(=O)N1CCCCC1
> 500 | > 500 | 2.8 | O=S(=O)(NCCc1cccc(OCCNc2ccncc2)c1)c1ccc(Cl)cc1
> 500 | > 500 | 10 | O=C(CNS(=O)(=O)c1ccccc1)N[C@H](CCNc1ccncc1)C(=O)N1CCCCC1
> 500 | > 500 | 0.07 | CN(c1cccc(OCCNc2ccncc2)c1)S(=O)(=O)c1ccccc1
> 500 | > 500 | 120 | c1ccc(OCCNc2ccncc2)cc1

SMILES | Ki (Plasminogen) [µM] | Ki (Serine protease 1) [µM] | Ki (Prothrombin) [µM]
Nc1ccncc1 [DALFAMPRIDINE] | > 2000 | > 2000 | > 2000
